Source: ChEMBL document CHEMBL4393657, “Tetrazole hybrids and their antifungal activities” (2019)
In brackets after ≈: the same amount, converted by molar mass.

Columns and labels:
Type in all cases: functional
[1] = test system: Aspergillus niger; assay: Antifungal activity against Aspergillus niger assessed as inhibition zone at 250 ug/ml; settings: read-out: IZ
[2] = test system: Candida albicans; assay: Antifungal activity against Candida albicans assessed as inhibition zone at 250 ug/ml; settings: read-out: IZ
[3] = test system: Candida albicans; assay: In vivo antifungal activity against Candida albicans TA infected in CDF-1 mouse dosed orally assessed as survival of mouse; settings: po
[4] = test system: Candida albicans; assay: Antifungal activity against Candida albicans TA
[5] = test system: Candida albicans; assay: Antifungal activity against Candida albicans assessed as reduction in fungal cell growth incubated for 48 hrs by broth microdilution susceptibility method
[6] = test system: Fusarium oxysporum; assay: Antifungal activity against Fusarium oxysporum assessed as reduction in fungal cell growth incubated for 24 and 72 hrs by cup plate method
[7] = test system: Candida albicans; assay: Antifungal activity against Candida albicans assessed as reduction in fungal cell growth incubated for 24 and 72 hrs by cup plate method
[8] = test system: Aspergillus flavus; assay: Antifungal activity against Aspergillus flavus assessed as reduction in fungal cell growth incubated for 24 and 72 hrs by cup plate method
[9] = test system: Candida albicans; assay: Antifungal activity against Candida albicans assessed as inhibition zone at 125 ug/ml by disk diffusion method; settings: read-out: IZ
[10] = test system: Candida albicans; assay: Antifungal activity against Candida albicans NCCS 3471 assessed as inhibition zone at 50 ug/ml incubated for 3 to 4 days by disk diffusion method; settings: read-out: IZ
[11] = test system: Aspergillus fumigatus; assay: Antifungal activity against Aspergillus fumigatus NCIM 902 assessed as inhibition zone at 50 ug/ml incubated for 3 to 4 days by disk diffusion method; settings: read-out: IZ
[12] = test system: Aspergillus niger; assay: Antifungal activity against Aspergillus niger assessed as reduction in fungal cell growth incubated for 48 hrs by broth microdilution susceptibility method

## Oc1cccc(-c2nnnn2-c2nc3ccccc3s2)c1
[1]
  zone of inhibition at 250 µg/mL: 13 to 23 mm
[2]
  zone of inhibition at 250 µg/mL: 13 to 23 mm

## C[C@@H](n1cnnn1)[C@](O)(Cn1cncn1)c1ccccc1F
[3]
  ED50: 0.18 to 1.54 mg/kg
[4]
  MIC: 12.5 to 100 µg/mL (≈ 41.2 to 330 µM)

## CN(C)c1ccc(-c2nnnn2-c2nc3ccccc3s2)cc1
[1]
  zone of inhibition at 250 µg/mL: 13 to 23 mm
[2]
  zone of inhibition at 250 µg/mL: 13 to 23 mm

## CN(C)c1ccc(/C=C2/C(=O)N(/N=C/c3cc4ccccc4n4nnnc34)C(=S)N(c3ccccc3)C2=O)cc1
[5]
  MIC: ≥ 100 µg/mL

## COc1ccc2cc(C3CC(c4cc(Br)ccc4O)=NN3)c3nnnn3c2c1 (stereo not given)
[6]
  MIC: 25 to 100 µg/mL (≈ 56.9 to 228 µM)
[7]
  MIC: 25 to 100 µg/mL (≈ 56.9 to 228 µM)
[8]
  MIC: 25 to 100 µg/mL (≈ 56.9 to 228 µM)

## CCOC(=O)C(C#N)C(c1cc2cc(OC)ccc2n2nnnc12)P(=O)(OCC)OCC (stereo not given)
[6]
  MIC: 10 to 25 µg/mL (≈ 21.7 to 54.2 µM)
[7]
  MIC: 10 to 25 µg/mL (≈ 21.7 to 54.2 µM)
[8]
  MIC: 10 to 25 µg/mL (≈ 21.7 to 54.2 µM)

## COc1cc(-c2nnnn2-c2nc3ccccc3s2)cc(OC)c1OC
[1]
  zone of inhibition at 250 µg/mL: 13 to 23 mm
[2]
  zone of inhibition at 250 µg/mL: 13 to 23 mm

## Oc1ccc(/N=C/c2cc3cc(-c4nc5ccccc5[nH]4)ccc3n3nnnc23)cc1
[9]
  zone of inhibition at 125 µg/mL: 7 to 12 mm

## CCOC(=O)C(C#N)C(c1cc2c(OCC)cccc2n2nnnc12)P(=O)(OCC)OCC (stereo not given)
[6]
  MIC: 10 to 25 µg/mL (≈ 21 to 52.6 µM)
[7]
  MIC: 10 to 25 µg/mL (≈ 21 to 52.6 µM)
[8]
  MIC: 10 to 25 µg/mL (≈ 21 to 52.6 µM)

## COc1ccc(-n2nnnc2-c2cccnc2)cc1
[10]
  zone of inhibition at 50 µg/mL: 10 to 19 mm
[11]
  zone of inhibition at 50 µg/mL: 10 to 19 mm

## COc1ccc2c(c1)cc(/C=C/C(=O)c1cc(Br)ccc1O)c1nnnn12
[6]
  MIC: 25 to 100 µg/mL (≈ 58.8 to 235 µM)
[7]
  MIC: 25 to 100 µg/mL (≈ 58.8 to 235 µM)
[8]
  MIC: 25 to 100 µg/mL (≈ 58.8 to 235 µM)

## Clc1ccc(-c2nnnn2-c2nc3ccccc3s2)cc1
[1]
  zone of inhibition at 250 µg/mL: 13 to 23 mm
[2]
  zone of inhibition at 250 µg/mL: 13 to 23 mm

## Oc1ccc(Br)cc1C1=NNC(c2cc3ccccc3n3nnnc23)C1 (stereo not given)
[6]
  MIC: 25 to 100 µg/mL (≈ 61.1 to 244 µM)
[7]
  MIC: 25 to 100 µg/mL (≈ 61.1 to 244 µM)
[8]
  MIC: 25 to 100 µg/mL (≈ 61.1 to 244 µM)

## Clc1ccc(-n2nnnc2-c2cccnc2)cc1
[10]
  zone of inhibition at 50 µg/mL: 10 to 19 mm
[11]
  zone of inhibition at 50 µg/mL: 10 to 19 mm

## C[C@@H](n1cnnn1)[C@](O)(Cn1cncn1)c1ccc(Cl)cc1
[3]
  ED50: 0.18 to 1.54 mg/kg
[4]
  MIC: 12.5 to 100 µg/mL (≈ 39.1 to 313 µM)

## S=C1N=C(c2ccc(Cl)cc2)CC(c2cc3ccccc3n3nnnc23)N1 (stereo not given)
[5]
  MIC: ≥ 100 µg/mL

## COc1ccc(-c2nn[se]c2-n2nnc(-c3ccc(C)cc3)n2)cc1
[5]
  MIC: 100 to 400 µg/mL (≈ 252 to 1010 µM)
[12]
  MIC: 100 to 400 µg/mL (≈ 252 to 1010 µM)

## C[C@@H](n1nnn(-c2ccc(OCC(F)(F)C(F)(F)F)cc2)c1=O)[C@](O)(Cn1cncn1)c1ccccc1
[3]
  ED50: 0.71 to 2 mg/kg

## c1ccc(-c2nnnn2-c2nc3ccccc3s2)cc1
[1]
  zone of inhibition at 250 µg/mL: 13 to 23 mm
[2]
  zone of inhibition at 250 µg/mL: 13 to 23 mm

## Cc1ccc(N2C(=O)CC(=O)N(/N=C/c3cc4ccccc4n4nnnc34)C2=S)cc1
[5]
  MIC: ≥ 100 µg/mL

## Clc1ccccc1-n1nnnc1-c1cccnc1
[10]
  zone of inhibition at 50 µg/mL: 17 mm
[11]
  zone of inhibition at 50 µg/mL: 15 mm

## O=[N+]([O-])c1ccc(/N=C/c2cc3cc(-c4nc5ccccc5[nH]4)ccc3n3nnnc23)cc1
[9]
  zone of inhibition at 125 µg/mL: 7 to 12 mm

## S=C1N=C(c2ccc(Br)cc2)CC(c2cc3ccccc3n3nnnc23)N1 (stereo not given)
[5]
  MIC: ≥ 100 µg/mL

## C[C@@H](n1nnn(-c2ccc(OC(F)(F)F)cc2)c1=O)[C@](O)(Cn1cncn1)c1ccccc1
[3]
  ED50: 0.71 to 2 mg/kg

## C[C@@H](n1nnn(-c2ccc(C(F)(F)F)cc2)c1=O)[C@](O)(Cn1cncn1)c1ccccc1
[3]
  ED50: 0.71 to 2 mg/kg

## Brc1ccc(-n2nnnc2-c2cccnc2)cc1
[10]
  zone of inhibition at 50 µg/mL: 19 mm
[11]
  zone of inhibition at 50 µg/mL: 17 mm

## CCOC(=O)C(C#N)C(c1cc2c(C)cccc2n2nnnc12)P(=O)(OCC)OCC (stereo not given)
[6]
  MIC: 10 to 25 µg/mL (≈ 22.5 to 56.1 µM)
[7]
  MIC: 10 to 25 µg/mL (≈ 22.5 to 56.1 µM)
[8]
  MIC: 10 to 25 µg/mL (≈ 22.5 to 56.1 µM)

## O=C1CC(=O)N(c2ccc(Cl)cc2)C(=S)N1/N=C/c1cc2ccccc2n2nnnc12
[5]
  MIC: ≥ 100 µg/mL

## Cc1ccc2cc(C3CC(c4cc(Br)ccc4O)=NN3)c3nnnn3c2c1 (stereo not given)
[6]
  MIC: 25 to 100 µg/mL (≈ 59.1 to 236 µM)
[7]
  MIC: 25 to 100 µg/mL (≈ 59.1 to 236 µM)
[8]
  MIC: 25 to 100 µg/mL (≈ 59.1 to 236 µM)

## Cc1ccc2c(c1)cc(/C=C/C(=O)c1cc(Br)ccc1O)c1nnnn12
[6]
  MIC: 25 to 100 µg/mL (≈ 61.1 to 244 µM)
[7]
  MIC: 25 to 100 µg/mL (≈ 61.1 to 244 µM)
[8]
  MIC: 25 to 100 µg/mL (≈ 61.1 to 244 µM)

## O=C(/C=C/c1cc2ccccc2n2nnnc12)c1cc(Br)ccc1O
[6]
  MIC: 25 to 100 µg/mL (≈ 63.3 to 253 µM)
[7]
  MIC: 25 to 100 µg/mL (≈ 63.3 to 253 µM)
[8]
  MIC: 25 to 100 µg/mL (≈ 63.3 to 253 µM)

## O=[N+]([O-])c1ccc(-c2nnnn2-c2nc3ccccc3s2)cc1
[1]
  zone of inhibition at 250 µg/mL: 13 to 23 mm
[2]
  zone of inhibition at 250 µg/mL: 13 to 23 mm

## Cc1ccc(-c2nnnn2-c2nc3ccccc3s2)cc1
[1]
  zone of inhibition at 250 µg/mL: 13 to 23 mm
[2]
  zone of inhibition at 250 µg/mL: 13 to 23 mm

## Clc1cccc(-n2nnnc2-c2cccnc2)c1Cl
[10]
  zone of inhibition at 50 µg/mL: 16 mm
[11]
  zone of inhibition at 50 µg/mL: 18 mm

## CCOC(=O)C(C#N)C(c1cc2ccc(C)cc2n2nnnc12)P(=O)(OCC)OCC (stereo not given)
[6]
  MIC: 10 to 25 µg/mL (≈ 22.5 to 56.1 µM)
[7]
  MIC: 10 to 25 µg/mL (≈ 22.5 to 56.1 µM)
[8]
  MIC: 10 to 25 µg/mL (≈ 22.5 to 56.1 µM)

## COc1ccc(-c2nn[se]c2-n2nnc(-c3ccccc3)n2)cc1
[5]
  MIC: 100 to 400 µg/mL (≈ 261 to 1040 µM)
[12]
  MIC: 100 to 400 µg/mL (≈ 261 to 1040 µM)

## CCOC(=O)C(C#N)C(c1cc2c(OC)cccc2n2nnnc12)P(=O)(OCC)OCC (stereo not given)
[6]
  MIC: 10 to 25 µg/mL (≈ 21.7 to 54.2 µM)
[7]
  MIC: 10 µg/mL (≈ 21.7 µM)
[8]
  MIC: 10 µg/mL (≈ 21.7 µM)

## Oc1ccc(-c2nnnn2-c2nc3ccccc3s2)cc1O
[1]
  zone of inhibition at 250 µg/mL: 13 to 23 mm
[2]
  zone of inhibition at 250 µg/mL: 13 to 23 mm

## CCOC(=O)C(C#N)C(c1cc2ccc(CC)cc2n2nnnc12)P(=O)(OCC)OCC (stereo not given)
[6]
  MIC: 10 to 25 µg/mL (≈ 21.8 to 54.4 µM)
[7]
  MIC: 10 to 25 µg/mL (≈ 21.8 to 54.4 µM)
[8]
  MIC: 10 to 25 µg/mL (≈ 21.8 to 54.4 µM)
